The source of these data is ChEMBL document CHEMBL1201862, “PubChem BioAssay data set” (2004).

A word on the GI50: it is the concentration giving 50% growth inhibition. One may read the AC50 as the concentration at which the activity in the assay is half-maximal.

The source made the active and inactive calls. Rule as the data show it, for most assays here: active = GI50 up to about 1.1 µM and inactive = higher.

One experiment deals with SN12K1. The experiment in a line: cells. Format: functional. The following applies: Homo sapiens.
Another experiment relates to P388. The experiment in a line: cells. The settings on record: Mus musculus. Format: functional.
The next experiment concerns P388/ADR. Briefly: cells. Format: functional. The following applies: Mus musculus.
The target in a further experiment is Cytochrome P450 2D6 (Homo sapiens, UniProt P10635).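 Also: CYP2D6 member of a cytochrome P450 panel assay.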
The next experiment concerns the target Paired box protein Pax-8 (Homo sapiens, UniProt Q06710). Briefly: PAX8 transcriptional activity inhibition in RMG-I – RMG-I cells, luciferase, cherry-pick, dose response (AID 687027).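 Also: luciferase reporter driven by Pax8 target thyroperoxidase promoter measured by SteadyGlo luminescence.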 Format: functional, cell-based.

Cytochrome P450 2D6, sequence (P10635 whole entry): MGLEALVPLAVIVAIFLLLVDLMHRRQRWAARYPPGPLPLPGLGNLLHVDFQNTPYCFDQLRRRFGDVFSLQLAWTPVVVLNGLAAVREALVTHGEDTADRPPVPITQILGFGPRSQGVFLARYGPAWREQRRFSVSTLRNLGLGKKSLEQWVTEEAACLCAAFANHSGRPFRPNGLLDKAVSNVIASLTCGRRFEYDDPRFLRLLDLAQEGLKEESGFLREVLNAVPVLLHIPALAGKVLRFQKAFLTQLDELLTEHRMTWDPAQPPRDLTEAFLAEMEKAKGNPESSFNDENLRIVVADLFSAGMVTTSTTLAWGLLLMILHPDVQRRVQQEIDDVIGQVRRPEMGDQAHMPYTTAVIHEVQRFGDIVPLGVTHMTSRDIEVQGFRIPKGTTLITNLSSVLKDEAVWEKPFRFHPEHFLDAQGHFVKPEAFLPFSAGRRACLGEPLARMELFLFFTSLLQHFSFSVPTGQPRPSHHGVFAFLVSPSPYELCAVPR
Paired box protein Pax-8, sequence (Q06710 whole entry): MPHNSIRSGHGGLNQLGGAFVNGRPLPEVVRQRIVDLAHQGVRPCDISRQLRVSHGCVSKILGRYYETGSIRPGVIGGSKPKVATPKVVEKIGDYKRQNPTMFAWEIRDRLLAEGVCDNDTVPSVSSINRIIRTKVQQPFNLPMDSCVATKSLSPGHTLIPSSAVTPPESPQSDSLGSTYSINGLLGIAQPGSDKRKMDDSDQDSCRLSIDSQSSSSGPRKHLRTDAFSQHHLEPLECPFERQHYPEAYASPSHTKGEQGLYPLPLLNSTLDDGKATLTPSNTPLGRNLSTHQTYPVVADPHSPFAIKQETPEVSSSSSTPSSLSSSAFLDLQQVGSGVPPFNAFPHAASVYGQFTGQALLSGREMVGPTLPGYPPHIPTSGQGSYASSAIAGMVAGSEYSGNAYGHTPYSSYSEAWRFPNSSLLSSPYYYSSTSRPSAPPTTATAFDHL

For the compound `O=P1(c2ccccc2)Nc2ccccc2SSc2ccccc2N1`, the GI50 in the experiment with SN12K1 was 15300 nM (inactive); in the experiment on P388, 839 nM (active); in the experiment on P388/ADR it was 7450 nM (inactive).

Regarding `O=S(=O)(c1ccccc1)N1CCC2(CCN(Cc3nccs3)CC2)CC1`, the AC50 on Cytochrome P450 2D6 was 25100 nM (inconclusive).

As for `COc1cccc2c1C(=O)c1c(O)c3c(c(O)c1C2=O)C[C@@](O)(C(=O)CO)C[C@@H]3OC1CC(N2CCOCC2)C(O)C(C)O1` (stereo partly specified), the values for the GI50 in the experiment on SN12K1, in the experiment on P388 and with P388/ADR were 3.66 nM (active), 2.5 nM (active) and 1.36 nM (active), respectively.

With `COc1cc(CCCOC2OC(COC3OCC(O)C(O)C3O)C(O)C(O)C2O)cc2cc(-c3ccc4c(c3)OCO4)oc12` (stereo unspecified), the GI50 in the experiment on SN12K1, in the experiment with P388 and with P388/ADR was > 175000 nM (inactive) throughout.

Turning to `C=CCc1cccc(/C=N\N/C(N)=N/O)c1O`, the GI50 was 2010 nM (inactive) in the experiment on SN12K1, 1190 nM (inactive) in the experiment with P388 and 780 nM (active) in the experiment with P388/ADR.

Regarding `COc1ncc2nc(CCc3ccccc3)c(=O)n(CCC#N)c2n1`, at Cytochrome P450 2D6, the AC50 was 25100 nM (inconclusive).

Consider `COC1=C(C)C(=O)C2=C(C1=O)C(CO)N1C(C#N)C3CC4C(C1C2N1CCOC41)N3C` (stereo unspecified), for which, on Paired box protein Pax-8, the AC50 is < 260 nM (active). Also, the GI50 with SN12K1 was 294 nM (active); with P388 it was < 10 nM (active); in the experiment on P388/ADR, 10 nM (active).

For the compound `COc1ccc(N[C@@H]2c3cc4c(cc3C(c3cc(OC)c(O)c(OC)c3)[C@H]3C(=O)OCC32)OCO4)cc1OC` (stereo partly specified), the GI50 is < 10 nM (active) in the experiment on P388 and 269 nM (active) with P388/ADR.

As for `Oc1c(CNCCCN2CCCC2)cc(Cl)c2cccnc12`, the GI50 is 942 nM (active) in the experiment on SN12K1, 1690 nM (inactive) in the experiment with P388 and 1100 nM (active) with P388/ADR.

As for `Cc1ccc2cc3cccc(C(=O)NCCN(C)C)c3nc2c1`, the values for the GI50 with SN12K1, with P388 and with P388/ADR were 426 nM (active), 257 nM (active) and 252 nM (active), respectively.

For the compound `O=NN(CCCl)C(=O)NC1CCCCC1` [LOMUSTINE], the GI50 with SN12K1 was 32600 nM (inactive); in the experiment on P388, 4230 nM (inactive); in the experiment on P388/ADR, 4560 nM (inactive).

Regarding `CN(C)CCNC(=O)c1cc(Cl)cc2ccc(-c3ccccc3)nc12`, the GI50 was 1770 nM (inactive) with SN12K1, 476 nM (active) in the experiment on P388 and 1470 nM (inactive) in the experiment with P388/ADR.

For `O=C(c1cc(-c2ccc(Cl)cc2Cl)on1)N1CCN(C(=O)c2ccco2)CC1`, on Cytochrome P450 2D6, the AC50 is 20000 nM (inconclusive).

In the case of `CC(=O)OC1CC2(O)C(CCC3(C)C(c4ccc(=O)oc4)CCC32O)C2(C)C1=CC(O)C1OC12` (stereo unspecified), the GI50 with SN12K1 is 42.4 nM (active); in the experiment with P388, 46100 nM (inactive); in the experiment on P388/ADR, 79100 nM (inactive).

As for `C[C@@H]1[C@@H]2[C@@H](C=C3C4CCC5Cc6nc7c(nc6C[C@@]5(C)C4C[C@H](O)[C@]32CO)CC2CCC3C4=C[C@H]5O[C@@]6(OC(C)(CO)C[C@@H]6O)[C@H](C)[C@@]5(O)[C@]4(C)[C@@H](O)CC3[C@]2(C)C7)O[C@]12CCC(C)(C)O2` (stereo partly specified), the results for the GI50 in the experiment on SN12K1, in the experiment on P388 and in the experiment on P388/ADR were 0.365 nM (active), 0.365 nM (active) and 91.8 nM (active), respectively.

With `C=CCC(O[Si](C)(C)C(C)(C)C)c1cc(O[Si](C)(C)C(C)(C)C)ccc1OC` (stereo unspecified), the GI50 was > 100000 nM (inactive) in the experiment with SN12K1, 22200 nM (inactive) in the experiment with P388 and > 100000 nM (inactive) with P388/ADR.

With `CNC(=O)OCc1nc(SC2CCCCO2)n(C)c1COC(=O)NC` (stereo unspecified), the GI50 in the experiment with SN12K1, with P388 and in the experiment with P388/ADR was > 100000 nM (inactive) each time.

For the compound `Cc1noc(C)c1-c1ccc2ncnc(NCc3ccccc3)c2c1`, the AC50 on Cytochrome P450 2D6 was 39800 nM (inconclusive).
